Source: PubChem BioAssay AID1963972 (Molecular Pharmacology Branch, DTP, NCI, 2024)

Tested on: 945468-187-T-J2-PDC spheroids viability
Experiment: Anticancer human tumor 945468-187-T-J2-PDC patient-derived rectal carcinoma cell line growth inhibition [PI3K]
Settings: spheroids with HUVEC and MSC; for IC50: curve of first compound; for viability, T/C: stronger effect = lower value
How it was run: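 Three cell types, namely tumor cells, endothelial cells and mesenchymal stem cells, formed each spheroid. Combinations with four PI3K inhibitors were screened at clinically achievable concentrations decreasing by half-log, and spheroid viability was recorded.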

[1] = second compound 0.00316 µM, first compound 0.0316 µM
[2] = second compound 0.00316 µM, first compound 0.1 µM
[3] = second compound 0.00316 µM, first compound 0.316 µM
[4] = second compound 0.00316 µM, first compound 1 µM
[5] = second compound 0.00316 µM, first compound 3.16 µM
[6] = second compound 0.00316 µM, first compound 10 µM
[7] = second compound 0.01 µM, first compound 0.0316 µM
[8] = second compound 0.01 µM, first compound 0.1 µM
[9] = second compound 0.01 µM, first compound 0.316 µM
[10] = second compound 0.01 µM, first compound 1 µM
[11] = second compound 0.01 µM, first compound 3.16 µM
[12] = second compound 0.01 µM, first compound 10 µM
[13] = second compound 0.0316 µM, first compound 0.0316 µM
[14] = second compound 0.0316 µM, first compound 0.1 µM
[15] = second compound 0.0316 µM, first compound 0.316 µM
[16] = second compound 0.0316 µM, first compound 1 µM
[17] = second compound 0.0316 µM, first compound 3.16 µM
[18] = second compound 0.0316 µM, first compound 10 µM
[19] = second compound 0.1 µM, first compound 0.0316 µM
[20] = second compound 0.1 µM, first compound 0.1 µM
[21] = second compound 0.1 µM, first compound 0.316 µM
[22] = second compound 0.1 µM, first compound 1 µM
[23] = second compound 0.1 µM, first compound 3.16 µM
[24] = second compound 0.1 µM, first compound 10 µM
[25] = second compound 0.316 µM, first compound 0.0316 µM
[26] = second compound 0.316 µM, first compound 0.1 µM
[27] = second compound 0.316 µM, first compound 0.316 µM
[28] = second compound 0.316 µM, first compound 1 µM
[29] = second compound 0.316 µM, first compound 3.16 µM
[30] = second compound 0.316 µM, first compound 10 µM
[31] = second compound 1 µM, first compound 0.0316 µM
[32] = second compound 1 µM, first compound 0.1 µM
[33] = second compound 1 µM, first compound 0.316 µM
[34] = second compound 1 µM, first compound 1 µM
[35] = second compound 1 µM, first compound 3.16 µM
[36] = second compound 1 µM, first compound 10 µM
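Further: spheroids exposed to compounds for seven days before reading.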

For `C#Cc1c(F)ccc2cc(O)cc(-c3ncc4c(N5CC6CCC(C5)N6)nc(OCC56CCCN5CC(F)C6)nc4c3F)c12` (stereo unspecified) + CC(Nc1ccc2c(c1)OCCn1cc(N3C(=O)OCC3C(F)F)nc1-2)C(N)=O, the IC50 (second compound 0.00316 µM) was > 10 µM, the IC50 (second compound 0.01 µM) was > 10 µM and the IC50 (second compound 0.0316 µM) was > 10 µM. The IC50 (second compound 0.1 µM) was > 10 µM, the IC50 (second compound 0.316 µM) was > 10 µM and the IC50 (second compound 1 µM) was > 10 µM. The viability, T/C [1] was 103%, the viability, T/C [2] was 86.9% and the viability, T/C [3] was 87.3%. For the same compound, the viability, T/C [4] was 96.7%, the viability, T/C [5] was 94% and the viability, T/C [6] was 96.5%. It also gave a viability, T/C [7] of 75.3%, a viability, T/C [8] of 105% and a viability, T/C [9] of 81.5%. It also gave a viability, T/C [10] of 82.8%, a viability, T/C [11] of 103% and a viability, T/C [12] of 86.8%. It also gave a viability, T/C [13] of 94.5%, a viability, T/C [14] of 85.7% and a viability, T/C [15] of 79.7%. For the same compound, the viability, T/C [16] was 88.1%, the viability, T/C [17] was 107% and the viability, T/C [18] was 103%. For the same compound, the viability, T/C [19] was 82.6%, the viability, T/C [20] was 81.2% and the viability, T/C [21] was 88.7%. For the same compound, the viability, T/C [22] was 93.3%, the viability, T/C [23] was 108% and the viability, T/C [24] was 95.3%. For the same compound, the viability, T/C [25] was 77%, the viability, T/C [26] was 70.7% and the viability, T/C [27] was 76.5%. The viability, T/C [28] was 107%, the viability, T/C [29] was 81.4% and the viability, T/C [30] was 74.4%. The viability, T/C [31] was 72%, the viability, T/C [32] was 62.4% and the viability, T/C [33] was 67.1%. The viability, T/C [34] was 68.3%, the viability, T/C [35] was 75.3% and the viability, T/C [36] was 69.3%.

For `CC(Cn1ccc(-c2ccc(C#N)c(Cl)c2)n1)NC(=O)c1cc(C(C)O)[nH]n1` (stereo unspecified) + CC(Nc1ccc2c(c1)OCCn1cc(N3C(=O)OCC3C(F)F)nc1-2)C(N)=O, the IC50 (second compound 0.00316 µM) was > 10 µM, the IC50 (second compound 0.01 µM) was > 10 µM and the IC50 (second compound 0.0316 µM) was > 10 µM. For the same compound, the IC50 (second compound 0.1 µM) was > 10 µM, the IC50 (second compound 0.316 µM) was > 10 µM and the IC50 (second compound 1 µM) was > 10 µM. The viability, T/C [1] was 98.9%, the viability, T/C [2] was 105% and the viability, T/C [3] was 107%. It also gave a viability, T/C [4] of 75.7%, a viability, T/C [5] of 106% and a viability, T/C [6] of 110%. It also gave a viability, T/C [7] of 108%, a viability, T/C [8] of 85.8% and a viability, T/C [9] of 90.5%. For the same compound, the viability, T/C [10] was 96.2%, the viability, T/C [11] was 111% and the viability, T/C [12] was 93.6%. It also gave a viability, T/C [13] of 100%, a viability, T/C [14] of 82% and a viability, T/C [15] of 88%. It also gave a viability, T/C [16] of 92%, a viability, T/C [17] of 91.1% and a viability, T/C [18] of 103%. For the same compound, the viability, T/C [19] was 86.2%, the viability, T/C [20] was 82% and the viability, T/C [21] was 99.1%. The viability, T/C [22] was 80.8%, the viability, T/C [23] was 101% and the viability, T/C [24] was 81.7%. The viability, T/C [25] was 85.2%, the viability, T/C [26] was 73.2% and the viability, T/C [27] was 95.2%. The viability, T/C [28] was 91.4%, the viability, T/C [29] was 82.7% and the viability, T/C [30] was 82.8%. The viability, T/C [31] was 76.2%, the viability, T/C [32] was 74.8% and the viability, T/C [33] was 68.9%. For the same compound, the viability, T/C [34] was 63.6%, the viability, T/C [35] was 72.3% and the viability, T/C [36] was 71.4%.

With `CC1(C)CCC(Nc2ncc(C(F)(F)F)c(-c3c[nH]c4c(P(C)(C)=O)c(C#N)ccc34)n2)CN1` (stereo unspecified) + CC(Nc1ccc2c(c1)OCCn1cc(N3C(=O)OCC3C(F)F)nc1-2)C(N)=O the IC50 (second compound 0.00316 µM) was 0.798 µM, the IC50 (second compound 0.01 µM) was 1.31 µM and the IC50 (second compound 0.0316 µM) was 2.11 µM. The IC50 (second compound 0.1 µM) was 1.06 µM, the IC50 (second compound 0.316 µM) was 0.896 µM and the IC50 (second compound 1 µM) was 4.24 µM. It also gave a viability, T/C [1] of 96%, a viability, T/C [2] of 115% and a viability, T/C [3] of 71.8%. For the same compound, the viability, T/C [4] was 50.2%, the viability, T/C [5] was 34.2% and the viability, T/C [6] was 49.6%. It also gave a viability, T/C [7] of 91.6%, a viability, T/C [8] of 92.7% and a viability, T/C [9] of 88.8%. It also gave a viability, T/C [10] of 52.5%, a viability, T/C [11] of 40.5% and a viability, T/C [12] of 42.7%. It also gave a viability, T/C [13] of 82.2%, a viability, T/C [14] of 98.3% and a viability, T/C [15] of 61.1%. The viability, T/C [16] was 64.3%, the viability, T/C [17] was 42.9% and the viability, T/C [18] was 43.8%. It also gave a viability, T/C [19] of 105%, a viability, T/C [20] of 91% and a viability, T/C [21] of 81%. It also gave a viability, T/C [22] of 48.5%, a viability, T/C [23] of 41.8% and a viability, T/C [24] of 51.4%. The viability, T/C [25] was 77.5%, the viability, T/C [26] was 103% and the viability, T/C [27] was 89.3%. It also gave a viability, T/C [28] of 45.8%, a viability, T/C [29] of 39.8% and a viability, T/C [30] of 31.6%. It also gave a viability, T/C [31] of 85.3%, a viability, T/C [32] of 76.3% and a viability, T/C [33] of 67.3%. For the same compound, the viability, T/C [34] was 65.7%, the viability, T/C [35] was 54.6% and the viability, T/C [36] was 40.1%.
